Measured values reported in patent US8192962B2, “Processes for detecting toxic substances” (Daikin Industries, Ltd., priority 2001, dated 2012).

System: Transport facilitation protein genes
Assay: DNA chip mRNA expression in yeast, transport facilitation protein genes (Table 5)
Type: cell-based, Saccharomyces cerevisiae S288C
How it was run: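 Whole-genome yeast DNA chip hybridization (65° C., >12 h) of Cy-labeled cDNA from S288C cells exposed 2 h at 25° C. to a sub-lethal toxicant dose in YPD; value is intensity relative to chemical-free control.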

manganese ethylenebis(dithiocarbamate) [(8)]
The level of expressed mRNA in the presence of chemical substance/The level of expressed mRNA in the absence of chemical substance (yeast gene YGR224W): 0.6
The level of expressed mRNA in the presence of chemical substance/The level of expressed mRNA in the absence of chemical substance (yeast gene YGR260W): 0.5
The level of expressed mRNA in the presence of chemical substance/The level of expressed mRNA in the absence of chemical substance (yeast gene YGR281W): 0.7
The level of expressed mRNA in the presence of chemical substance/The level of expressed mRNA in the absence of chemical substance (yeast gene YHL035C): 1.1
The level of expressed mRNA in the presence of chemical substance/The level of expressed mRNA in the absence of chemical substance (yeast gene YHL040C): 1.5
The level of expressed mRNA in the presence of chemical substance/The level of expressed mRNA in the absence of chemical substance (yeast gene YHL047C): 1.5
The level of expressed mRNA in the presence of chemical substance/The level of expressed mRNA in the absence of chemical substance (yeast gene YHR026W): 1.6
The level of expressed mRNA in the presence of chemical substance/The level of expressed mRNA in the absence of chemical substance (yeast gene YHR092C): 1.5
The level of expressed mRNA in the presence of chemical substance/The level of expressed mRNA in the absence of chemical substance (yeast gene YHR094C): 1.2
The level of expressed mRNA in the presence of chemical substance/The level of expressed mRNA in the absence of chemical substance (yeast gene YHR175W): 0.9
The level of expressed mRNA in the presence of chemical substance/The level of expressed mRNA in the absence of chemical substance (yeast gene YIL006W): 0.6
The level of expressed mRNA in the presence of chemical substance/The level of expressed mRNA in the absence of chemical substance (yeast gene YIL022W): 0.8
The level of expressed mRNA in the presence of chemical substance/The level of expressed mRNA in the absence of chemical substance (yeast gene YIL056W): 0.7
The level of expressed mRNA in the presence of chemical substance/The level of expressed mRNA in the absence of chemical substance (yeast gene YIL088C): 0.8
The level of expressed mRNA in the presence of chemical substance/The level of expressed mRNA in the absence of chemical substance (yeast gene YJL034W): 1.5
The level of expressed mRNA in the presence of chemical substance/The level of expressed mRNA in the absence of chemical substance (yeast gene YJL212C): 0.7
The level of expressed mRNA in the presence of chemical substance/The level of expressed mRNA in the absence of chemical substance (yeast gene YJL219W): 1.5
The level of expressed mRNA in the presence of chemical substance/The level of expressed mRNA in the absence of chemical substance (yeast gene YJR077C): 0.8
The level of expressed mRNA in the presence of chemical substance/The level of expressed mRNA in the absence of chemical substance (yeast gene YJR106W): 0.9
The level of expressed mRNA in the presence of chemical substance/The level of expressed mRNA in the absence of chemical substance (yeast gene YJR121W): 0.7
The level of expressed mRNA in the presence of chemical substance/The level of expressed mRNA in the absence of chemical substance (yeast gene YKL016C): 1.6
The level of expressed mRNA in the presence of chemical substance/The level of expressed mRNA in the absence of chemical substance (yeast gene YKL146W): 0.8
The level of expressed mRNA in the presence of chemical substance/The level of expressed mRNA in the absence of chemical substance (yeast gene YKR039W): 1.0
The level of expressed mRNA in the presence of chemical substance/The level of expressed mRNA in the absence of chemical substance (yeast gene YKR067W): 0.8
The level of expressed mRNA in the presence of chemical substance/The level of expressed mRNA in the absence of chemical substance (yeast gene YLL028W): 0.7
The level of expressed mRNA in the presence of chemical substance/The level of expressed mRNA in the absence of chemical substance (yeast gene YLR081W): 0.9
The level of expressed mRNA in the presence of chemical substance/The level of expressed mRNA in the absence of chemical substance (yeast gene YLR295C): 1.2
The level of expressed mRNA in the presence of chemical substance/The level of expressed mRNA in the absence of chemical substance (yeast gene YLR348C): 0.9
The level of expressed mRNA in the presence of chemical substance/The level of expressed mRNA in the absence of chemical substance (yeast gene YLR378C): 0.5
The level of expressed mRNA in the presence of chemical substance/The level of expressed mRNA in the absence of chemical substance (yeast gene YMR011W): 1.1
The level of expressed mRNA in the presence of chemical substance/The level of expressed mRNA in the absence of chemical substance (yeast gene YMR162C): 0.8
The level of expressed mRNA in the presence of chemical substance/The level of expressed mRNA in the absence of chemical substance (yeast gene YMR203W): 0.7
The level of expressed mRNA in the presence of chemical substance/The level of expressed mRNA in the absence of chemical substance (yeast gene YNL055C): 0.7
The level of expressed mRNA in the presence of chemical substance/The level of expressed mRNA in the absence of chemical substance (yeast gene YNL259C): 1.5
The level of expressed mRNA in the presence of chemical substance/The level of expressed mRNA in the absence of chemical substance (yeast gene YNR072W): 0.9
The level of expressed mRNA in the presence of chemical substance/The level of expressed mRNA in the absence of chemical substance (yeast gene YOL119C): 2.0
The level of expressed mRNA in the presence of chemical substance/The level of expressed mRNA in the absence of chemical substance (yeast gene YOL156W): 1.0
The level of expressed mRNA in the presence of chemical substance/The level of expressed mRNA in the absence of chemical substance (yeast gene YOL163W): 1.1
The level of expressed mRNA in the presence of chemical substance/The level of expressed mRNA in the absence of chemical substance (yeast gene YOR035C): 1.0
The level of expressed mRNA in the presence of chemical substance/The level of expressed mRNA in the absence of chemical substance (yeast gene YOR130C): 0.8
The level of expressed mRNA in the presence of chemical substance/The level of expressed mRNA in the absence of chemical substance (yeast gene YOR153W): 0.5
The level of expressed mRNA in the presence of chemical substance/The level of expressed mRNA in the absence of chemical substance (yeast gene YOR273C): 0.6
The level of expressed mRNA in the presence of chemical substance/The level of expressed mRNA in the absence of chemical substance (yeast gene YOR316C): 0.8
The level of expressed mRNA in the presence of chemical substance/The level of expressed mRNA in the absence of chemical substance (yeast gene YOR332W): 1.5
The level of expressed mRNA in the presence of chemical substance/The level of expressed mRNA in the absence of chemical substance (yeast gene YOR348C): 0.8
The level of expressed mRNA in the presence of chemical substance/The level of expressed mRNA in the absence of chemical substance (yeast gene YPL036W): 0.5
The level of expressed mRNA in the presence of chemical substance/The level of expressed mRNA in the absence of chemical substance (yeast gene YPL134C): 1.3
The level of expressed mRNA in the presence of chemical substance/The level of expressed mRNA in the absence of chemical substance (yeast gene YPL271W): 0.9
The level of expressed mRNA in the presence of chemical substance/The level of expressed mRNA in the absence of chemical substance (yeast gene YPR192W): 0.6
The level of expressed mRNA in the presence of chemical substance/The level of expressed mRNA in the absence of chemical substance (yeast gene YPR194C): 1.0
